The record followed here is patent US9850247B2 (Almac Discovery Limited, priority 2013, dated 2017).

A value given as a limit tells only on which side of the number the result lay.

One may read the IC50 as the concentration that inhibits the measured activity by half.

For the test, the target named is T1, Wee-1 kinase (Homo sapiens, UniProt P30291).
T1 construct: purchased Invitrogen PV3817
T1 sequence (P30291 whole entry): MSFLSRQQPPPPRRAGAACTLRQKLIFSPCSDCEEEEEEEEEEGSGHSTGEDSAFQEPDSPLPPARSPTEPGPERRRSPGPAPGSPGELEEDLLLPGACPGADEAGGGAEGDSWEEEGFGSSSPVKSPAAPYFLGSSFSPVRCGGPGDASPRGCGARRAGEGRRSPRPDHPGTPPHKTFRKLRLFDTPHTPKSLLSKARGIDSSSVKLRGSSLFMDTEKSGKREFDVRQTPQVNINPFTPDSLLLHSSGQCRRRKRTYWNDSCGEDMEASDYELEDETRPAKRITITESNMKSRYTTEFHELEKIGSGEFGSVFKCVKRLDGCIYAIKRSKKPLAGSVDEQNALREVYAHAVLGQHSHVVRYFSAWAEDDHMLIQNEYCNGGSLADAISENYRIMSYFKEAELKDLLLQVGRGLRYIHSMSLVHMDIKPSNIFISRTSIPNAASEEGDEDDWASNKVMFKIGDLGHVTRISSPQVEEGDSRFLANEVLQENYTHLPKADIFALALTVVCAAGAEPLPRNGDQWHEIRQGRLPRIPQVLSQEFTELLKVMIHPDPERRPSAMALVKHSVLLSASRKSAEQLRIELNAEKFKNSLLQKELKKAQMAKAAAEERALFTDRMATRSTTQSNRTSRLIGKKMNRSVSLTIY
As to the kind of experiment: Measurement of Wee-1 kinase activity (ADP-Glo luminescent kit). In kind it is biochemical. Here is the method:
Method 1: Measurement of Wee-1 Kinase Activity
In the measurement of Wee-1 activity, a commercial peptide Poly(Lys Tyr (4:1)) hydrobromide was purchased from Sigma Aldrich and used as the substrate. Activated Wee-1 kinase was purchased from Invitrogen (PV3817) and an ADP-Glo luminescent kit was purchased from Promega.
All reactions took place in […] volumes in reaction buffer containing 40 mM Tris-HCl and 20 mM magnesium chloride, supplemented with 0.1 mg/mL bovine serum albumin and 2 mM DTT. Compounds were serially diluted in buffer and 5 μL of each concentration pipetted into a white 384 well plate (Sigma Aldrich M6186). A 5 μL aliquot of the Wee-1 enzyme was added to each well and the plate centrifuged for 1 min to ensure mixing of the enzyme and inhibitor.
The plate was incubated at room temperature for 30 minutes before the addition of 2.0 μg/mL of substrate and 30 μM ATP in a 5 μL aliquot. The plate was centrifuged for one minute and incubated for 1 h at RT.
15 µL of ADP-Glo stop reagent was added to each well to quench the reaction and deplete unconverted ATP. The plate was incubated for a further 40 min in the dark at RT.
30 μL of ADP-Glo kinase detection reagent was added to each well, converting ADP to ATP, catalysing the generation of luciferin by luciferase. The plate was shaken for 1 min, and incubated in the dark for an additional hour.
Luminescence from each well was detected using the Biotek Synergy4 HD plate reader and the percentage inhibition of kinase activity calculated for each inhibitor tested. Positive (kinase only) and negative (no kinase) controls were added to each plate to ensure specific interaction of kinase and inhibitor. The IC50 concentration for each inhibitor was calculated by plotting the percentage kinase inhibition against concentration of inhibitor and the curve generated by non-linear regression fitting.
For orientation: In ADP-Glo the light output rises with the ADP produced.
With `COc1cc(Nc2ncc3c(n2)N(C)CN(c2c(Cl)cccc2Cl)C3=O)ccc1C1CCNCC1` [Example 182, 3-(2,6-dichlorophenyl)-7-((3-methoxy-4-(piperidin-4-yl)phenyl)amino)-1-methyl-2,3-dihydropyrimido[4,5-d]pyrimidin-4(1H)-one], the IC50 is at most 0.01 µM.
The value for `CN1CN(c2c(Cl)cccc2Cl)C(=O)c2cnc(Nc3ccc(N4CC5COCC(C4)N5C)cc3)nc21` [Example 71, 3-(2,6-dichlorophenyl)-1-methyl-7-((4-(9-methyl-3-oxa-7,9-diazabicyclo[3.3.1]nonan-7-yl)phenyl)amino)-2,3-dihydropyrimido[4,5-d]pyrimidin-4(1H)-one] was 0.01 to 0.1 µM; that for `C[C@@H]1CN[C@@H](C)CN1c1ccc(Nc2ncc3c(n2)N(C)CN(c2ccccc2Cl)C3=O)cc1F` [Example 110, 3-(2-chlorophenyl)-7-((4-((2R,5S)-2,5-dimethylpiperazin-1-yl)-3-fluorophenyl)amino)-1-methyl-2,3-dihydropyrimido[4,5-d]pyrimidin-4(1H)-one] was 0.01 to 0.1 µM; that for `C[C@@H]1CN(c2ccc(Nc3ncc4c(n3)N(C)CN(c3ccccc3Cl)C4=O)cc2F)CCN1` [Example 99, (R)-3-(2-chlorophenyl)-7-((3-fluoro-4-(3-methylpiperazin-1-yl)phenyl)amino)-1-methyl-2,3-dihydropyrimido[4,5-d]pyrimidin-4(1H)-one] was 0.01 to 0.1 µM.
The value for `Cc1cccc(Cl)c1N1CN(C)c2nc(Nc3ccc(N4CCNCC4)cc3)ncc2C1=O` [Example 92, 3-(2-chloro-6-methylphenyl)-1-methyl-7-((4-(piperazin-1-yl)phenyl)amino)-2,3-dihydropyrimido[4,5-d]pyrimidin-4(1H)-one] was 0.01 to 0.1 µM; that for `CN1CN(c2c(F)cccc2Cl)C(=O)c2cnc(Nc3ccc(N4C[C@@H]5C[C@H]4CN5)cc3)nc21` [Example 54, 7-((4-((1S,4S)-2,5-diazabicyclo[2.2.1]heptan-2-yl)phenyl)amino)-3-(2-chloro-6-fluorophenyl)-1-methyl-2,3-dihydropyrimido[4,5-d]pyrimidin-4(1H)-one] was 0.01 to 0.1 µM; that for `C[C@@H]1CN(c2ccc(Nc3ncc4c(n3)N(C)CN(c3c(Cl)cccc3Cl)C4=O)cc2F)CCN1C` [Example 47, (R)-3-(2,6-dichlorophenyl)-7-((4-(3,4-dimethylpiperazin-1-yl)-3-fluorophenyl)amino)-1-methyl-2,3-dihydropyrimido[4,5-d]pyrimidin-4(1H)-one] was 0.01 to 0.1 µM.
As for `COCc1cc(Nc2ncc3c(n2)N(C)CN(c2c(C)cccc2Cl)C3=O)ccc1N1CCN[C@H](C)C1` [Example 101, (R)-3-(2-chloro-6-methylphenyl)-7-((3-(methoxymethyl)-4-(3-methylpiperazin-1-yl)phenyl)amino)-1-methyl-2,3-dihydropyrimido[4,5-d]pyrimidin-4(1H)-one], the figure is 0.01 to 0.1 µM; as for `CN1CN(c2c(Cl)cccc2Cl)C(=O)c2cnc(Nc3ccc(N4CCN(C)[C@H](CO)C4)c(F)c3)nc21` [Example 50, (S)-3-(2,6-dichlorophenyl)-7-((3-fluoro-4-(3-(hydroxymethyl)-4-methylpiperazin-1-yl)phenyl)amino)-1-methyl-2,3-dihydropyrimido[4,5-d]pyrimidin-4(1H)-one], 0.01 to 0.1 µM; as for `COC[C@H]1CN(c2ccc(Nc3ncc4c(n3)N(C)CN(c3c(Cl)cccc3Cl)C4=O)cc2)CCN1C` [Example 65, (R)-3-(2,6-dichlorophenyl)-7-((4-(3-(methoxymethyl)-4-methylpiperazin-1-yl)phenyl)amino)-1-methyl-2,3-dihydropyrimido[4,5-d]pyrimidin-4(1H)-one], 0.01 to 0.1 µM.
Take `C[C@@H]1CN[C@@H](C)CN1c1ccc(Nc2ncc3c(n2)N(C)CN(c2ccccc2Cl)C3=O)cc1` [Example 98, 3-(2-chlorophenyl)-7-((4-((2R,5S)-2,5-dimethylpiperazin-1-yl)phenyl)amino)-1-methyl-2,3-dihydropyrimido[4,5-d]pyrimidin-4(1H)-one]: the IC50 was in the range of 0.01 to 0.1 µM.
As for `CN1CN(c2c(Cl)cccc2Cl)C(=O)c2cnc(Nc3ccc(N4CCNC(C(F)(F)F)C4)cc3)nc21` (centres unmarked) [Example 62, 3-(2,6-dichlorophenyl)-1-methyl-7-((4-(3-(trifluoromethyl)piperazin-1-yl)phenyl)amino)-2,3-dihydropyrimido[4,5-d]pyrimidin-4(1H)-one], the figure is 0.01 to 0.1 µM; as for `CN1CN(c2c(F)cccc2Cl)C(=O)c2cnc(Nc3cccc(CO)c3)nc21` [Example 56, 3-(2-chloro-6-fluorophenyl)-7-((3-(hydroxymethyl)phenyl)amino)-1-methyl-2,3-dihydropyrimido[4,5-d]pyrimidin-4(1H)-one], at least 0.1 µM.
With `C[C@@H]1CN(C)[C@@H](C)CN1c1ccc(Nc2ncc3c(n2)N(C)CN(c2c(Cl)cccc2Cl)C3=O)cc1` [Example 45, 3-(2,6-dichlorophenyl)-1-methyl-7-((4-((2R,5S)-2,4,5-trimethylpiperazin-1-yl)phenyl)amino)-2,3-dihydropyrimido[4,5-d]pyrimidin-4(1H)-one], the IC50 lay within 0.01 to 0.1 µM.
As to `COc1ccc(CN2CN(c3c(Cl)cccc3Cl)C(=O)c3cnc(Nc4ccc(N5CCNCC5)cc4)nc32)cc1` [Example 8, 3-(2,6-Dichlorophenyl)-1-(4-methoxybenzyl)-7-((4-(piperazin-1-yl)phenyl)amino)-2,3-dihydropyrimido[4,5-d]pyrimidin-4(1H)-one], the IC50 is at least 0.1 µM.
As for `CN1CN(c2c(F)cccc2Cl)C(=O)c2cnc(Nc3ccc(N4CCOCC4)c(CO)c3)nc21` [Example 57], the figure is 0.01 to 0.1 µM; as for `C[C@@H]1CN[C@@H](C)CN1c1ccc(Nc2ncc3c(n2)N(C)CN(c2c(Cl)cccc2Cl)C3=O)cc1F` [Example 81, 3-(2,6-dichlorophenyl)-7-((4-((2R,5S)-2,5-dimethylpiperazin-1-yl)-3-fluorophenyl)amino)-1-methyl-2,3-dihydropyrimido[4,5-d]pyrimidin-4(1H)-one], 0.01 to 0.1 µM.
For the compound `CC(=O)N1CCN(c2ccc(Nc3ncc4c(n3)N(C)CN(c3c(Cl)cccc3Cl)C4=O)cc2)CC1` [Example 125, 7-((4-(4-acetylpiperazin-1-yl)phenyl)amino)-3-(2,6-dichlorophenyl)-1-methyl-2,3-dihydropyrimido[4,5-d]pyrimidin-4(1H)-one], the IC50 is 0.01 to 0.1 µM.
The value for `COc1cc(Nc2ncc3c(n2)N(C)CN(c2ccccc2Cl)C3=O)ccc1N1C[C@@H]2C[C@H]1CN2` [Example 107, 7-((4-((1S,4S)-2,5-diazabicyclo[2.2.1]heptan-2-yl)-3-methoxyphenyl)amino)-3-(2-chlorophenyl)-1-methyl-2,3-dihydropyrimido[4,5-d]pyrimidin-4(1H)-one] was 0.01 to 0.1 µM; that for `CN1CN(c2c(Cl)cccc2Cl)C(=O)c2cnc(Nc3ccc(N4CCN(C)C(C(F)(F)F)C4)cc3)nc21` (centres unmarked) [Example 68, 3-(2,6-dichlorophenyl)-1-methyl-7-((4-(4-methyl-3-(trifluoromethyl)piperazin-1-yl)phenyl)amino)-2,3-dihydropyrimido[4,5-d]pyrimidin-4(1H)-one] was at least 0.1 µM; that for `COc1cc(Nc2ncc3c(n2)N(C)CN(c2c(Cl)cccc2Cl)C3=O)ccc1C1CCN(C)CC1` [Example 183, 3-(2,6-dichlorophenyl)-7-((3-methoxy-4-(1-methylpiperidin-4-yl)phenyl)amino)-1-methyl-2,3-dihydropyrimido[4,5-d]pyrimidin-4(1H)-one] was at most 0.01 µM.
As for `C[C@@H]1CN[C@@H](C)CN1c1ccc(Nc2ncc3c(n2)N(C)CN(c2c(F)cccc2Cl)C3=O)cc1` [Example 93, 3-(2-chloro-6-fluorophenyl)-7-((4-((2R,5S)-2,5-dimethylpiperazin-1-yl)phenyl)amino)-1-methyl-2,3-dihydropyrimido[4,5-d]pyrimidin-4(1H)-one], the figure is 0.01 to 0.1 µM; as for `CN1CN(c2c(Cl)cccc2Cl)C(=O)c2cnc(Nc3ccc(N4CC5(CNC5)C4)cc3)nc21` [Example 51, 7-((4-(2,6-diazaspiro[3.3]heptan-2-yl)phenyl)amino)-3-(2,6-dichlorophenyl)-1-methyl-2,3-dihydropyrimido[4,5-d]pyrimidin-4(1H)-one], 0.01 to 0.1 µM; as for `C[C@@H]1CN(c2ccc(Nc3ncc4c(n3)N(C)CN(c3c(Cl)cccc3Cl)C4=O)cc2)C[C@H](C)N1C` [Example 52, 3-(2,6-dichlorophenyl)-1-methyl-7-((4-((3R,5S)-3,4,5-trimethylpiperazin-1-yl)phenyl)amino)-2,3-dihydropyrimido[4,5-d]pyrimidin-4(1H)-one], 0.01 to 0.1 µM.
The value for `CN1CN(c2ccccc2Cl)C(=O)c2cnc(Nc3ccc(N4CCNCC4)cc3)nc21` [Example 24, 3-(2-Chlorophenyl)-1-methyl-7-((4-(piperazin-1-yl)phenyl)amino)-2,3-dihydropyrimido[4,5-d]pyrimidin-4(1H)-one] was 0.01 to 0.1 µM; that for `CN1CN(c2c(Cl)cccc2Cl)C(=O)c2cnc(Nc3ccc4c(c3)C3CCC(C4)N3)nc21` (centres unmarked) [Example 70, 3-(2,6-dichlorophenyl)-1-methyl-7-((6,7,8,9-tetrahydro-5H-5,8-epiminobenzo[7]annulen-3-yl)amino)-2,3-dihydropyrimido[4,5-d]pyrimidin-4(1H)-one] was 0.01 to 0.1 µM.
